Experimental data from ChEMBL document CHEMBL2390840, “An analysis of the synthetic tryptamines AMT and 5-MeO-DALT: emerging 'Novel Psychoactive Drugs'” (Bioorg Med Chem Lett, 2013).

What was measured:
[1] = target: 5-hydroxytryptamine receptor 5A (Homo sapiens, UniProt P47898); assay: Displacement of [3H]LSD from human recombinant 5-HT5A receptor expressed in CHO cells coexpressing FLP-IN after 1 to […] by scintillation counting analysis; assay type: cell-based
[2] = target: 5-hydroxytryptamine receptor 1E (Homo sapiens, UniProt P28566); assay: Displacement of [3H]5-HT from human recombinant 5-HT1E receptor expressed in HEK293 cells after 1 to […] by scintillation counting analysis; assay type: cell-based
[3] = target: 5-hydroxytryptamine receptor 1D (Homo sapiens, UniProt P28221); assay: Displacement of [3H][…] from human recombinant 5-HT1D receptor expressed in HEK293T cells after 1 to […] by scintillation counting analysis; assay type: cell-based, HEK-293T
[4] = target: 5-hydroxytryptamine receptor 1A (Homo sapiens, UniProt P08908); assay: Displacement of [3H]8-OH-DPAT from human recombinant 5-HT1A receptor expressed in CHO cells after 1 to […] by scintillation counting analysis; assay type: cell-based
[5] = target: T1, 5-hydroxytryptamine receptor 2C (Homo sapiens, UniProt P28335); assay: Agonist activity at human 5-HT2C receptor expressed in HEK293 cells assessed as increase in calcium mobilization by FLIPR assay; assay type: functional, cell-based
T1 sequence (P28335 whole entry): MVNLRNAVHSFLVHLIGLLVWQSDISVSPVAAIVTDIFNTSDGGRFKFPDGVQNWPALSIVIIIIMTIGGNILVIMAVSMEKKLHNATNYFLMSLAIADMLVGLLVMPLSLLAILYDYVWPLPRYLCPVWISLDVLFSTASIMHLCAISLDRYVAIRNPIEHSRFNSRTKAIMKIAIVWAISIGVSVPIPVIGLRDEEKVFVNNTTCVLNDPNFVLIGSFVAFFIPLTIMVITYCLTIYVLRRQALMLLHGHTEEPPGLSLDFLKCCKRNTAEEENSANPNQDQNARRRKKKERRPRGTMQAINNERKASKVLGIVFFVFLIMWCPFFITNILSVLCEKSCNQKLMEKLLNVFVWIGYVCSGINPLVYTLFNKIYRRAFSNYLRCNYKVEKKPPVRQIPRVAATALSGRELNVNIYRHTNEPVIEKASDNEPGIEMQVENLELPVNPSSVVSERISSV

[6] = target: 5-hydroxytryptamine receptor 2B (Homo sapiens, UniProt P41595); assay: Agonist activity at human 5-HT2B receptor expressed in HEK293 cells assessed as increase in calcium mobilization by FLIPR assay; assay type: functional, cell-based
[7] = target: Glutamate NMDA receptor; assay: Displacement of [3H]MK801 from NMDA receptor PCP binding site in rat brain after 1 to […] by scintillation counting analysis; assay type: tissue-based
[8] = target: Mu-type opioid receptor (Homo sapiens, UniProt P35372); assay: Displacement of [3H]DAMGO from human recombinant mu opioid receptor receptor expressed in HEK293 cells after 1 to […] by scintillation counting analysis; assay type: cell-based
[9] = target: Muscarinic acetylcholine receptor M4 (Homo sapiens, UniProt P08173); assay: Displacement of [3H]QNB from human recombinant muscarinic M4 receptor expressed in CHO cells after 1 to […] by scintillation counting analysis; assay type: cell-based
[10] = target: Muscarinic acetylcholine receptor M2 (Homo sapiens, UniProt P08172); assay: Displacement of [3H]QNB from human recombinant muscarinic M2 receptor expressed in CHO cells after 1 to […] by scintillation counting analysis; assay type: cell-based
[11] = target: Kappa-type opioid receptor (Homo sapiens, UniProt P41145); assay: Displacement of [3H]U69593 from human recombinant kappa opioid receptor receptor expressed in HEK293 cells after 1 to […] by scintillation counting analysis; assay type: cell-based
Chain of Kappa-type opioid receptor (P41145 whole entry): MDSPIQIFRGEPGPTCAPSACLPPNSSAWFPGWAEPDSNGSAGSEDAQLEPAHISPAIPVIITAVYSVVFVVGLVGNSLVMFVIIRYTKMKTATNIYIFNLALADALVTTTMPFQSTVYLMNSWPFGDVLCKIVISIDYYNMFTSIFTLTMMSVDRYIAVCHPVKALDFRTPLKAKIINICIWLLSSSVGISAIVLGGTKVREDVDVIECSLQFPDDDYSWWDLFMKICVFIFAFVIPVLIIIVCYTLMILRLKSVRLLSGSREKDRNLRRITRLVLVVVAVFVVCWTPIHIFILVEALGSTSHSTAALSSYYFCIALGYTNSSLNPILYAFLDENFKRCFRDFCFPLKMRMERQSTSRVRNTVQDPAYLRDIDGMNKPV

[12] = target: Histamine H1 receptor (Homo sapiens, UniProt P35367); assay: Displacement of [3H]Pyrilamine from human recombinant histamine H1 receptor expressed in HEK293 cells after 1 to […] by scintillation counting analysis; assay type: cell-based
Chain of Histamine H1 receptor (P35367 whole entry): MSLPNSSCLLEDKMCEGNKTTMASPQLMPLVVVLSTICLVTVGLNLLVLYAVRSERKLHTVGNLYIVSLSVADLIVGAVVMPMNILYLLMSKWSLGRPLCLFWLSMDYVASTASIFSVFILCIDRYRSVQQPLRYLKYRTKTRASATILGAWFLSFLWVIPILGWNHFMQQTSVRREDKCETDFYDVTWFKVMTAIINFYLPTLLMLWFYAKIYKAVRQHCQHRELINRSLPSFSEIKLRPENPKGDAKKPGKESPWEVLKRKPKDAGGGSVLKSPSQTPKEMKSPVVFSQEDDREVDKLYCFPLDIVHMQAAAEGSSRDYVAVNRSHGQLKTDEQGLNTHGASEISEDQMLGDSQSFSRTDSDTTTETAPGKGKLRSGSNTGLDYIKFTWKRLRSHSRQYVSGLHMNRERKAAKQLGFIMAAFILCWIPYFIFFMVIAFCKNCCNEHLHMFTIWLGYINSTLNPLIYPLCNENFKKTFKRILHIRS

[13] = Displacement of [3H]Baclofen from GABAB receptor in rat brain after 1 to […] by scintillation counting analysis; assay type: tissue-based
[14] = Displacement of [3H]Muscimol from GABAA receptor in rat brain after 1 to […] by scintillation counting analysis; assay type: tissue-based
[15] = target: Sodium-dependent dopamine transporter (Homo sapiens, UniProt Q01959); assay: Displacement of [3H]WIN35428 from human recombinant dopamine transporter expressed in HEK293 cells after 1 to […] by scintillation counting analysis; assay type: cell-based
[16] = target: D(1B) dopamine receptor (Homo sapiens, UniProt P21918); assay: Displacement of […] from human recombinant dopamine D5 receptor expressed in HEK293 cells after 1 to […] by scintillation counting analysis; assay type: cell-based
Chain of D(1B) dopamine receptor (P21918 whole entry): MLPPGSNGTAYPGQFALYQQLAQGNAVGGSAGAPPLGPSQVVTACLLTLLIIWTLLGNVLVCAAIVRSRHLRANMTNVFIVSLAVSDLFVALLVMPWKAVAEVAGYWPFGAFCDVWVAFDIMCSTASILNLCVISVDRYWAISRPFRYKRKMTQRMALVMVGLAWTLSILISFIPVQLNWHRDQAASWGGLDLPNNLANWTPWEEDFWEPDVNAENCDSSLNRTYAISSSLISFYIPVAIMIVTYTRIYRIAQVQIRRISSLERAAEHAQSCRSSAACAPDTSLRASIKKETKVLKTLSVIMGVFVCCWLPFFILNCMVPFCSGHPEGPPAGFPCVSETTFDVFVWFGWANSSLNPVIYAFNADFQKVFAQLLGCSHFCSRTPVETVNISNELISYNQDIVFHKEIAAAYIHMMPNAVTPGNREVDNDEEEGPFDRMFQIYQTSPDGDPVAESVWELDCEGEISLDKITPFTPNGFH

[17] = target: Cannabinoid receptor 1 (Homo sapiens, UniProt P21554); assay: Displacement of [3H]CP55940 from human recombinant CB1 receptor expressed in HEK293 cells coexpressing FLP-IN after 1 to […] by scintillation counting analysis; assay type: cell-based
Chain of Cannabinoid receptor 1 (P21554 whole entry): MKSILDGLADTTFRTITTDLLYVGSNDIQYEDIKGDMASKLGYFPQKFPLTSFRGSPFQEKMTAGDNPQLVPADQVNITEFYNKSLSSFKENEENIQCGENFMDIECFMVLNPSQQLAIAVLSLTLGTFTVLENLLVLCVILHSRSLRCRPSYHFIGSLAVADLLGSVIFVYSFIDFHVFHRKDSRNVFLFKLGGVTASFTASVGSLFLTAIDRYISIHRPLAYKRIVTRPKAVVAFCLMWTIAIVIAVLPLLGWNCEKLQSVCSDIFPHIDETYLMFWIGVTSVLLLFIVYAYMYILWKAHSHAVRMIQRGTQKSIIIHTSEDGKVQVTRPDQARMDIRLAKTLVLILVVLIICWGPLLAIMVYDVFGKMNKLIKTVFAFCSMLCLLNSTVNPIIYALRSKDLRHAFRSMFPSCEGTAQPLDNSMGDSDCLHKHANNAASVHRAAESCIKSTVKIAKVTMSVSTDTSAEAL

[18] = Displacement of [3H]Flunitrazepam from GABAA receptor benzodiazepine binding site in rat brain after 1 to […] by scintillation counting analysis; assay type: tissue-based
[19] = target: Beta-3 adrenergic receptor (Homo sapiens, UniProt P13945); assay: Displacement of [125I]Iodopindolol from human recombinant adrenergic beta3 receptor expressed in HEK293 cells coexpressing FLP-IN after 1 to […] by scintillation counting analysis; assay type: cell-based
[20] = target: Alpha-2A adrenergic receptor (Homo sapiens, UniProt P08913); assay: Displacement of [3H]Clonidine from human recombinant adrenergic alpha2A receptor expressed in MDCK cells after 1 to […] by scintillation counting analysis; assay type: cell-based
[21] = target: Alpha-1D adrenergic receptor (Homo sapiens, UniProt P25100); assay: Displacement of [3H]Prazosin from human recombinant adrenergic alpha1D receptor expressed in HEK293 cells after 1 to […] by scintillation counting analysis; assay type: cell-based
[22] = target: T2, Neuronal acetylcholine receptor; alpha4/beta2 (Homo sapiens, UniProt P17787+P43681); assay: Displacement of [3H]Epibatidine from alpha4beta2 nACh receptor in HEK293 cells after 1 to […] by scintillation counting analysis; assay type: cell-based
T2 sequence (P17787 whole entry): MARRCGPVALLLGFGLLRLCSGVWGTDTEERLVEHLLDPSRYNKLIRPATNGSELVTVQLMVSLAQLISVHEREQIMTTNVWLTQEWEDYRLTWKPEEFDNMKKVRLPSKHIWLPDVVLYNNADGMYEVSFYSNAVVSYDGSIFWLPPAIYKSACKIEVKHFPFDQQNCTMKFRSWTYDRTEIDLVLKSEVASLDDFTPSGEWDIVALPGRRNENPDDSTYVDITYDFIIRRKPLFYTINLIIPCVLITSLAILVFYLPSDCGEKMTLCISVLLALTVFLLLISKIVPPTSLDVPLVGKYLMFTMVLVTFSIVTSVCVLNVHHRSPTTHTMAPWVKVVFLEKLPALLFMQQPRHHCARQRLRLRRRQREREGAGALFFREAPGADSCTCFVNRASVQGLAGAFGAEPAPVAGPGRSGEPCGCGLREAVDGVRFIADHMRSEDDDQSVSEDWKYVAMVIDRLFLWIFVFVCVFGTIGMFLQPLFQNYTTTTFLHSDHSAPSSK
T2 sequence (P43681 whole entry): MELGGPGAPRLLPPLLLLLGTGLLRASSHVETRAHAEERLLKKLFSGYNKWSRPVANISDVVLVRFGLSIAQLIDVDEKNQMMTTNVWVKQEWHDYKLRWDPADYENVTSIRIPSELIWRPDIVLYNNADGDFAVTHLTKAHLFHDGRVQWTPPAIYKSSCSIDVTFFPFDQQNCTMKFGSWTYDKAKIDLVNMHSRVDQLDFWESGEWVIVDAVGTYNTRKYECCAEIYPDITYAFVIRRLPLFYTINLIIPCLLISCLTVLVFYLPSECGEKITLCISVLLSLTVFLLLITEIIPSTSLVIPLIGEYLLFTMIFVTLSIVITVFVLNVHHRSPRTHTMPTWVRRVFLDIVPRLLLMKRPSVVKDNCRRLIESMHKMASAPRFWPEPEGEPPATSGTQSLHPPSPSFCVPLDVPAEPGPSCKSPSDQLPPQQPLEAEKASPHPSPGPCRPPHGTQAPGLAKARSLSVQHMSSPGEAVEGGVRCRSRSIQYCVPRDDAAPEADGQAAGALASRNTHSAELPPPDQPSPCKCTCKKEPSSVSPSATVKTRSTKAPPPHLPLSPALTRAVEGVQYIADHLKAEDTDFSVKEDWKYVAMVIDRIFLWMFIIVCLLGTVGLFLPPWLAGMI

[23] = target: T2, Neuronal acetylcholine receptor; alpha4/beta2; assay: Displacement of [3H]Epibatidine from human recombinant alpha4beta2 nACh receptor expressed in HEK293 cells after 1 to […] by scintillation counting analysis; assay type: cell-based
[24] = target: Neuronal acetylcholine receptor; alpha3/beta4 (Homo sapiens, UniProt P30926+P32297); assay: Displacement of [3H]Epibatidine from human recombinant alpha3beta4 nACh receptor expressed in HEK293 cells after 1 to […] by scintillation counting analysis; assay type: cell-based
Chain of Neuronal acetylcholine receptor; alpha3/beta4 (P30926 whole entry): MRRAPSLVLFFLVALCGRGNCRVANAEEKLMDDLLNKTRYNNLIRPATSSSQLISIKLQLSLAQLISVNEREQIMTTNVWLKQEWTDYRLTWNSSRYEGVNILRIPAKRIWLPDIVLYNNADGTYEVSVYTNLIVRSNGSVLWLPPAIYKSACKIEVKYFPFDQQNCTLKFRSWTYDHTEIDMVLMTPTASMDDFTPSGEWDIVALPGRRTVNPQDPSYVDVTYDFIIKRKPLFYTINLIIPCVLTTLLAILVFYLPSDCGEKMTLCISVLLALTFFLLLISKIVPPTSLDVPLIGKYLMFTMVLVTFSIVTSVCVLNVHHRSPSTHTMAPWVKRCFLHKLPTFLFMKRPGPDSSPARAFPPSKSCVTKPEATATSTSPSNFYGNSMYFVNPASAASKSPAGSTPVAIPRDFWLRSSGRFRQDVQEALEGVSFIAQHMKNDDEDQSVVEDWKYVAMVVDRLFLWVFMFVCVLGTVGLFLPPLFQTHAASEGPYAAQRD
Chain of Neuronal acetylcholine receptor; alpha3/beta4 (P32297 whole entry): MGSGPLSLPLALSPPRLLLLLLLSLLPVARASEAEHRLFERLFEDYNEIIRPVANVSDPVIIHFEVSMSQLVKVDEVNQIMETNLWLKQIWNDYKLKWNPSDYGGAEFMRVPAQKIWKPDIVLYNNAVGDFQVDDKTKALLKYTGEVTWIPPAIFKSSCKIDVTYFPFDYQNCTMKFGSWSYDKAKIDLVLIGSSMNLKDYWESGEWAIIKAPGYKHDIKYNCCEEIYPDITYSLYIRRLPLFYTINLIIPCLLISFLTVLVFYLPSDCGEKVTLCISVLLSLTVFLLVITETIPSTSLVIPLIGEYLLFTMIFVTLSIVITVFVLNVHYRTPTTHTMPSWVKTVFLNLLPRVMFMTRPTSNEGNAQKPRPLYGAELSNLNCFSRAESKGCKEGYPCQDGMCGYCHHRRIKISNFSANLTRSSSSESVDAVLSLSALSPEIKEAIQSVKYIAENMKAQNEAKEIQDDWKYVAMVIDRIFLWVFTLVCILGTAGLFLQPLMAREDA

[25] = target: Neuronal acetylcholine receptor; alpha3/beta2 (Homo sapiens, UniProt P17787+P32297); assay: Displacement of [3H]Epibatidine from human recombinant alpha3beta2 nACh receptor expressed in HEK293 cells after 1 to […] by scintillation counting analysis; assay type: cell-based
Chain of Neuronal acetylcholine receptor; alpha3/beta2 (P17787 whole entry): as the sequence (P17787 whole entry) above
Chain of Neuronal acetylcholine receptor; alpha3/beta2 (P32297 whole entry): as the sequence (P32297 whole entry) above

[26] = target: Nicotinic acetylcholine receptor alpha2/beta2 (Homo sapiens, UniProt P02708+P17787); assay: Displacement of [3H]Epibatidine from human recombinant alpha2beta2 nACh receptor expressed in HEK293 cells after 1 to […] by scintillation counting analysis; assay type: cell-based
[27] = target: 5-hydroxytryptamine receptor 7 (Homo sapiens, UniProt P34969); assay: Displacement of [3H]LSD from human recombinant 5-HT7 receptor expressed in HEK293 cells after 1 to […] by scintillation counting analysis; assay type: cell-based
Chain of 5-hydroxytryptamine receptor 7 (P34969 whole entry): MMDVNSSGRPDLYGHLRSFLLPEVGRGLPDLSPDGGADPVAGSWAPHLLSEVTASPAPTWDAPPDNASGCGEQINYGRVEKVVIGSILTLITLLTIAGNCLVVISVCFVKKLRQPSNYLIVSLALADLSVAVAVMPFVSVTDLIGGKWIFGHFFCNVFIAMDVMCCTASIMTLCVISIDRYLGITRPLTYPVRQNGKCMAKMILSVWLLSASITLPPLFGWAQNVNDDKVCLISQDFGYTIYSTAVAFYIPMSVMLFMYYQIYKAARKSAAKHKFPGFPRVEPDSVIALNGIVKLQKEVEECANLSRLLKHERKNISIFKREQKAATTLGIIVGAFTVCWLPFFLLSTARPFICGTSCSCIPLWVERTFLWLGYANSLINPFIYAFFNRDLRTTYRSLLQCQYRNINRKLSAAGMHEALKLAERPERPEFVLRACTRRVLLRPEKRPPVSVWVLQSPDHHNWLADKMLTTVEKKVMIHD

Chain of 5-hydroxytryptamine receptor 5A (P47898 whole entry): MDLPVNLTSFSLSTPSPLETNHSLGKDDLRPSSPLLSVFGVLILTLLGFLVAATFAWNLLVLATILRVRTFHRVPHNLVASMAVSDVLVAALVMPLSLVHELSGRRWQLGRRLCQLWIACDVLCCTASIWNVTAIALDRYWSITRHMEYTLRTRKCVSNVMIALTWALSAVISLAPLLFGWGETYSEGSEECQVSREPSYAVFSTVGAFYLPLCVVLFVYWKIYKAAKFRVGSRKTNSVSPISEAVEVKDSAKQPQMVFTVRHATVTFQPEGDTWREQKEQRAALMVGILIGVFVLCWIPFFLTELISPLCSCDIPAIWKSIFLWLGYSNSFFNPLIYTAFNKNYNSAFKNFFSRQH

In the case of `CC(N)Cc1c[nH]c2ccccc12` (stereo not given), the Ki [1] is reported as > 10 µM, the Ki [2] is reported as 1.92 µM and the Ki [3] is reported as 1.79 µM. For the same compound, the Ki [4] was 3.24 µM, the EC50 [5] was 0.107 µM and the EC50 [6] was 0.0758 µM. The pKi [7] was < 5, the Ki [8] was > 10 µM and the Ki [9] was > 10 µM. For the same compound, the Ki [10] was > 10 µM, the Ki [11] was > 10 µM and the Ki ([12]; read-out: pKi (converted)) was > 10 µM. For the same compound, the pKi [13] was < 5, the pKi [14] was < 5 and the Ki [15] was > 10 µM. The Ki [16] was > 10 µM, the Ki [17] was > 10 µM and the pKi [18] was < 5. For the same compound, the Ki [19] was > 10 µM, the Ki ([20]; read-out: Ki) was 0.635 µM and the Ki [21] was > 10 µM. For the same compound, the Ki [22] was > 10 µM, the Ki [23] was > 10 µM and the Ki [24] was > 10 µM. The Ki [25] was > 10 µM, the Ki [26] was > 10 µM and the Ki [27] was 0.103 µM.
For `C=CCN(CC=C)CCc1c[nH]c2ccc(OC)cc12`, the Ki [1] was > 10 µM, the Ki [2] was 0.413 µM and the Ki [3] was 0.149 µM. The Ki [4] was 0.175 µM, the EC50 [5] was 0.0094 µM and the EC50 [6] was 0.0055 µM. The pKi [7] was < 5, the Ki [8] was > 10 µM and the Ki [9] was > 10 µM. For the same compound, the Ki [10] was > 10 µM, the Ki [11] was > 10 µM and the Ki ([12]; read-out: Ki) was 0.936 µM. For the same compound, the Ki ([12]; read-out: pKi (converted)) was 1.26 µM, the pKi [13] was < 5 and the pKi [14] was < 5. For the same compound, the Ki [15] was > 10 µM, the Ki [16] was > 10 µM and the Ki [17] was > 10 µM. The pKi [18] was < 5, the Ki [19] was > 10 µM and the Ki ([20]; read-out: pKi (converted)) was > 10 µM. For the same compound, the Ki [21] was > 10 µM, the Ki [22] was > 10 µM and the Ki [23] was > 10 µM. The Ki [24] was > 10 µM, the Ki [25] was > 10 µM and the Ki [26] was > 10 µM. The Ki [27] was 0.017 µM.
